Assay results published in PubChem BioAssay (NCI).
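Abbreviation: GI50, concentration required for 50% inhibition of growth. TGI denotes the concentration required for complete inhibition of growth.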

Key:
Assay in all cases: inhibition of tumour cell growth, NCI panel, 384-well format
SF-295 CNS = tested on: SF-295 CNS
UO-31 renal = tested on: UO-31 renal
DU-145 prostate = tested on: DU-145 prostate
NCI-H522 lung = tested on: NCI-H522 lung
SNB-19 CNS = tested on: SNB-19 CNS
SK-OV-3 ovarian = tested on: SK-OV-3 ovarian
HS 578T breast = tested on: HS 578T breast
SNB-75 CNS = tested on: SNB-75 CNS
NCI-H226 lung = tested on: NCI-H226 lung
SK-MEL-28 melanoma = tested on: SK-MEL-28 melanoma
MALME-3M melanoma = tested on: MALME-3M melanoma
KM12 colon = tested on: KM12 colon
A549 NSCLC = tested on: A549 NSCLC
HOP-62 NSCLC = tested on: HOP-62 NSCLC
HOP-92 NSCLC = tested on: HOP-92 NSCLC
RPMI-8226 leukemia = tested on: RPMI-8226 leukemia
NCI-H23 lung = tested on: NCI-H23 lung
786-0 renal = tested on: 786-0 renal
UACC-62 melanoma = tested on: UACC-62 melanoma
NCI-H460 NSCLC = tested on: NCI-H460 NSCLC
OVCAR-4 ovarian = tested on: OVCAR-4 ovarian
HL-60(TB) leukemia = tested on: HL-60(TB) leukemia
COLO 205 colon = tested on: COLO 205 colon
OVCAR-3 ovarian = tested on: OVCAR-3 ovarian
U251 glioblastoma = tested on: U251 glioblastoma
OVCAR-5 ovarian = tested on: OVCAR-5 ovarian
T-47D breast = tested on: T-47D breast
ACHN renal = tested on: ACHN renal
NCI-H322M lung = tested on: NCI-H322M lung
M14 melanoma = tested on: M14 melanoma
MDA-MB-435 melanoma = tested on: MDA-MB-435 melanoma
SR leukemia = tested on: SR leukemia
MDA-MB-468 breast = tested on: MDA-MB-468 breast
HCT-116 colon = tested on: HCT-116 colon
LOX IMVI melanoma = tested on: LOX IMVI melanoma
NCI/ADR-RES ovarian = tested on: NCI/ADR-RES ovarian
MDA-MB-231 breast = tested on: MDA-MB-231 breast
SF-539 CNS = tested on: SF-539 CNS
A498 renal = tested on: A498 renal
MOLT-4 leukemia = tested on: MOLT-4 leukemia
HT29 colon = tested on: HT29 colon
IGROV1 ovarian = tested on: IGROV1 ovarian
HCC-2998 colon = tested on: HCC-2998 colon
BT-549 breast = tested on: BT-549 breast
CAKI-1 renal = tested on: CAKI-1 renal
OVCAR-8 ovarian = tested on: OVCAR-8 ovarian
SK-MEL-5 melanoma = tested on: SK-MEL-5 melanoma
RXF 393 renal = tested on: RXF 393 renal
MCF7 breast = tested on: MCF7 breast
EKVX NSCLC = tested on: EKVX NSCLC
SN12C renal = tested on: SN12C renal
PC-3 prostate = tested on: PC-3 prostate
HCT-15 colon = tested on: HCT-15 colon

Which GI50 (SF-295 CNS) does the source give for `Cc1c(C(=O)Nc2ccc(N3C[C@@H](C)O[C@@H](C)C3)nc2)cccc1-c1ccc(OC(F)(F)F)cc1` here?
Its GI50 is 8.16 µM.

What about the GI50 (UO-31 renal) of the same compound?
Its GI50 is > 40.2 µM.

And the TGI (UO-31 renal)?
The TGI was > 54.6 µM.

What about the GI50 (DU-145 prostate) of the same compound?
Its GI50 is 8.5 µM.

What about the TGI (DU-145 prostate) of the same compound?
Its TGI is 20.9 µM.

And the GI50 (NCI-H522 lung)?
Its GI50 is 1.9 µM.

And the TGI (NCI-H522 lung)?
The TGI was 3.79 µM.

And the GI50 (SNB-19 CNS)?
Its GI50 is 15 µM.

And the TGI (SNB-19 CNS)?
Its TGI is 28.4 µM.

What about the GI50 (SK-OV-3 ovarian) of the same compound?
Its GI50 is 3.89 µM.

What about the TGI (SK-OV-3 ovarian) of the same compound?
The TGI was 5.34 µM.

And the GI50 (HS 578T breast)?
The GI50 was 8.01 µM.

And the TGI (HS 578T breast)?
Its TGI is 20.9 µM.

And the GI50 (SNB-75 CNS)?
The GI50 was 5.67 µM.

What about the GI50 (NCI-H226 lung) of the same compound?
The GI50 was 6.16 µM.

And the TGI (NCI-H226 lung)?
Its TGI is 12.8 µM.

And the GI50 (SK-MEL-28 melanoma)?
The GI50 was 12.3 µM.

And the TGI (SK-MEL-28 melanoma)?
Its TGI is 17.8 µM.

What about the GI50 (MALME-3M melanoma) of the same compound?
The GI50 was 7.69 µM.

What about the TGI (MALME-3M melanoma) of the same compound?
Its TGI is 19.6 µM.

And the GI50 (KM12 colon)?
The GI50 was 12 µM.

And the TGI (KM12 colon)?
Its TGI is 16.6 µM.

What about the GI50 (A549 NSCLC) of the same compound?
The GI50 was 6.24 µM.

What about the TGI (A549 NSCLC) of the same compound?
The TGI was 11.7 µM.

And the GI50 (HOP-62 NSCLC)?
The GI50 was 2.23 µM.

And the TGI (HOP-62 NSCLC)?
Its TGI is 4.12 µM.

And the GI50 (HOP-92 NSCLC)?
Its GI50 is 5.92 µM.

And the TGI (HOP-92 NSCLC)?
The TGI was 14 µM.

What about the GI50 (RPMI-8226 leukemia) of the same compound?
The GI50 was 6.67 µM.

And the TGI (RPMI-8226 leukemia)?
The TGI was 12.7 µM.

What about the GI50 (NCI-H23 lung) of the same compound?
The GI50 was 7.39 µM.

And the TGI (NCI-H23 lung)?
The TGI was 13.5 µM.

What about the GI50 (786-0 renal) of the same compound?
The GI50 was 6.53 µM.

What about the TGI (786-0 renal) of the same compound?
Its TGI is 17.5 µM.

And the GI50 (UACC-62 melanoma)?
The GI50 was 13 µM.

And the TGI (UACC-62 melanoma)?
The TGI was 17.5 µM.

And the GI50 (NCI-H460 NSCLC)?
Its GI50 is 9.46 µM.

And the TGI (NCI-H460 NSCLC)?
Its TGI is 14.5 µM.

And the GI50 (OVCAR-4 ovarian)?
Its GI50 is 4.99 µM.

And the TGI (OVCAR-4 ovarian)?
Its TGI is 14.9 µM.

And the GI50 (HL-60(TB) leukemia)?
Its GI50 is 6.8 µM.

And the TGI (HL-60(TB) leukemia)?
The TGI was 12.7 µM.

What about the GI50 (COLO 205 colon) of the same compound?
Its GI50 is 3.35 µM.

What about the TGI (COLO 205 colon) of the same compound?
The TGI was 4.86 µM.

And the GI50 (OVCAR-3 ovarian)?
The GI50 was 10.6 µM.

And the TGI (OVCAR-3 ovarian)?
The TGI was 15.3 µM.

What about the GI50 (U251 glioblastoma) of the same compound?
The GI50 was > 31.6 µM.

What about the TGI (U251 glioblastoma) of the same compound?
Its TGI is > 31.6 µM.

And the GI50 (OVCAR-5 ovarian)?
Its GI50 is 16.6 µM.

And the TGI (OVCAR-5 ovarian)?
The TGI was 30.7 µM.

What about the GI50 (T-47D breast) of the same compound?
The GI50 was 1.47 µM.

What about the TGI (T-47D breast) of the same compound?
The TGI was 3.43 µM.

And the GI50 (ACHN renal)?
Its GI50 is 11.4 µM.

What about the TGI (ACHN renal) of the same compound?
The TGI was 24.8 µM.

And the GI50 (NCI-H322M lung)?
Its GI50 is 13.3 µM.

What about the TGI (NCI-H322M lung) of the same compound?
Its TGI is 26.3 µM.

And the GI50 (M14 melanoma)?
The GI50 was 16 µM.

And the TGI (M14 melanoma)?
The TGI was 30.4 µM.

What about the GI50 (MDA-MB-435 melanoma) of the same compound?
Its GI50 is 17.6 µM.

And the TGI (MDA-MB-435 melanoma)?
Its TGI is 32.7 µM.

What about the GI50 (SR leukemia) of the same compound?
Its GI50 is 5.32 µM.

What about the TGI (SR leukemia) of the same compound?
The TGI was 13.4 µM.

What about the GI50 (MDA-MB-468 breast) of the same compound?
The GI50 was 5.63 µM.

What about the TGI (MDA-MB-468 breast) of the same compound?
The TGI was 11.3 µM.

What about the GI50 (HCT-116 colon) of the same compound?
The GI50 was 6.16 µM.

And the TGI (HCT-116 colon)?
The TGI was 17.8 µM.

What about the GI50 (LOX IMVI melanoma) of the same compound?
The GI50 was 7.94 µM.

And the TGI (LOX IMVI melanoma)?
The TGI was 13.8 µM.

And the GI50 (NCI/ADR-RES ovarian)?
Its GI50 is 5.04 µM.

And the TGI (NCI/ADR-RES ovarian)?
Its TGI is 18 µM.

And the GI50 (MDA-MB-231 breast)?
The GI50 was 3.63 µM.

What about the TGI (MDA-MB-231 breast) of the same compound?
Its TGI is 14.8 µM.

And the GI50 (SF-539 CNS)?
The GI50 was 11.2 µM.

What about the TGI (SF-539 CNS) of the same compound?
Its TGI is 18.1 µM.

And the GI50 (A498 renal)?
Its GI50 is 7 µM.

And the TGI (A498 renal)?
The TGI was 12.7 µM.

And the GI50 (MOLT-4 leukemia)?
Its GI50 is 4.21 µM.

And the TGI (MOLT-4 leukemia)?
The TGI was 15.4 µM.

And the GI50 (HT29 colon)?
The GI50 was 3.55 µM.

What about the TGI (HT29 colon) of the same compound?
Its TGI is 5.04 µM.

What about the GI50 (IGROV1 ovarian) of the same compound?
The GI50 was 12.3 µM.

And the TGI (IGROV1 ovarian)?
Its TGI is 25.4 µM.

And the GI50 (HCC-2998 colon)?
Its GI50 is 11.9 µM.

What about the TGI (HCC-2998 colon) of the same compound?
Its TGI is 16.5 µM.

What about the GI50 (BT-549 breast) of the same compound?
Its GI50 is 8.61 µM.

What about the TGI (BT-549 breast) of the same compound?
The TGI was 22.1 µM.

And the GI50 (CAKI-1 renal)?
The GI50 was 14.7 µM.

And the TGI (CAKI-1 renal)?
Its TGI is 28 µM.

What about the GI50 (OVCAR-8 ovarian) of the same compound?
The GI50 was 10.6 µM.

What about the TGI (OVCAR-8 ovarian) of the same compound?
Its TGI is 15.3 µM.

What about the GI50 (SK-MEL-5 melanoma) of the same compound?
Its GI50 is 7.06 µM.

What about the TGI (SK-MEL-5 melanoma) of the same compound?
Its TGI is 13.1 µM.

What about the GI50 (RXF 393 renal) of the same compound?
The GI50 was 4.85 µM.

And the TGI (RXF 393 renal)?
Its TGI is 8.09 µM.

What about the GI50 (MCF7 breast) of the same compound?
The GI50 was 7.5 µM.

What about the TGI (MCF7 breast) of the same compound?
Its TGI is 13.7 µM.

And the GI50 (EKVX NSCLC)?
The GI50 was 5.38 µM.

What about the TGI (EKVX NSCLC) of the same compound?
Its TGI is 12.6 µM.

What about the GI50 (SN12C renal) of the same compound?
Its GI50 is 13.7 µM.

And the TGI (SN12C renal)?
The TGI was 26.8 µM.

What about the GI50 (PC-3 prostate) of the same compound?
Its GI50 is 12.4 µM.

And the TGI (PC-3 prostate)?
Its TGI is 25 µM.

And the GI50 (HCT-15 colon)?
The GI50 was 7.15 µM.

And the TGI (HCT-15 colon)?
Its TGI is 13.3 µM.
